What was measured:
[1] = Half life in Wistar rat at 10 mg/kg, po; format: ADME, organism-based; design: dose 10 mg/kg, route oral; details: in vivo
[2] = Volume of distribution in Wistar rat at 3 mg/kg, iv; format: ADME, organism-based; design: dose 3 mg/kg, route intravenous; details: in vivo, read-out: Vss
[3] = AUC in Wistar rat at 10 mg/kg, po; format: ADME, organism-based; design: dose 10 mg/kg, route oral; details: plasma
[4] = Half life in Wistar rat at 3 mg/kg, iv; format: ADME, organism-based; design: dose 3 mg/kg, route intravenous; details: in vivo
Liver microsomes = test: Metabolic stability in Wistar rat liver microsome; format: ADME
Rattus norvegicus = test: Plasma concentration in Wistar rat at 10 mg/kg, po; format: ADME, organism-based; design: dose 10 mg/kg, route oral; details: in vivo
[5] = Oral bioavailability in Wistar rat at 10 mg/kg, po; format: ADME, organism-based; details: in vivo
[6] = Cmax in Wistar rat at 10 mg/kg, po; format: ADME, organism-based; design: dose 10 mg/kg, route oral; details: in vivo
[7] = Clearance in Wistar rat at 3 mg/kg, iv; format: ADME, organism-based; design: dose 3 mg/kg, route intravenous; details: in vivo

Row | SMILES | half-life [1] | Vd [2] | AUC [3] | half-life [4] | Stability (Liver microsomes) | Cp (Rattus norvegicus) | bioavailability [5] | Cmax [6] | clearance [7] | concentration (Rattus norvegicus)
1 | COc1ccc(NCCNC(=O)[C@H](CC2CCCCC2)Nc2nc3ccccc3o2)cc1 | 5.3 h | 1.63 L/kg | 15 ng·h/mL | 4.8 h | < 5% | Not Active | < 1% | 12 nM | 11.4 mL/min/kg | 
2 | CCOC(=O)C[C@@H](CN1CCc2cc(F)ccc21)NC(=O)[C@H](CC1CCCCC1)Nc1nc2ccc(Cl)cc2o1 | 1 h |  | 1580 ng·h/mL |  |  | Not Active | 22% | 1100 nM |  | 
3 | C[C@@H](CN1CCc2cc(F)ccc21)NC(=O)[C@H](CC1CCCCC1)Nc1nc2cccc(Cl)c2o1 | 1.1 h | 2.57 L/kg | 1080 ng·h/mL | 2.3 h |  |  | 24% | 703 nM | 33.1 mL/min/kg | 
4 | O=C(O)C[C@@H](CN1CCc2cc(F)ccc21)NC(=O)[C@H](CC1CCCCC1)Nc1nc2ccc(Cl)cc2o1 |  | 0.74 L/kg |  | 1 h |  |  |  |  | 23.2 mL/min/kg | > 1000 nM
5 | C[C@@H](CN1CC(C)(C)c2cc(F)ccc21)NC(=O)[C@H](CC1CCCCC1)Nc1nc2cccc(Cl)c2o1 | 5.1 h | 0.9 L/kg | 2400 ng·h/mL | 8.3 h |  |  | 15% | 1260 nM | 10.1 mL/min/kg | 
6 | C[C@@H](CN1c2ccc(F)cc2CC1(C)C)NC(=O)[C@H](CC1CCCCC1)Nc1nc2cccc(Cl)c2o1 | 4.1 h |  | 900 ng·h/mL |  |  |  |  |  |  | 
